Earlier results, collected in patent US20010006686A1, “INFLAMMATORY MEDIATION OBTAINED FROM ATRACTYLODES LANCEA” (priority 1999, published 2001).

Target: T1, cyclooxygenase-1 (Ovis aries, UniProt P05979)
T1 sequence (P05979 25-600): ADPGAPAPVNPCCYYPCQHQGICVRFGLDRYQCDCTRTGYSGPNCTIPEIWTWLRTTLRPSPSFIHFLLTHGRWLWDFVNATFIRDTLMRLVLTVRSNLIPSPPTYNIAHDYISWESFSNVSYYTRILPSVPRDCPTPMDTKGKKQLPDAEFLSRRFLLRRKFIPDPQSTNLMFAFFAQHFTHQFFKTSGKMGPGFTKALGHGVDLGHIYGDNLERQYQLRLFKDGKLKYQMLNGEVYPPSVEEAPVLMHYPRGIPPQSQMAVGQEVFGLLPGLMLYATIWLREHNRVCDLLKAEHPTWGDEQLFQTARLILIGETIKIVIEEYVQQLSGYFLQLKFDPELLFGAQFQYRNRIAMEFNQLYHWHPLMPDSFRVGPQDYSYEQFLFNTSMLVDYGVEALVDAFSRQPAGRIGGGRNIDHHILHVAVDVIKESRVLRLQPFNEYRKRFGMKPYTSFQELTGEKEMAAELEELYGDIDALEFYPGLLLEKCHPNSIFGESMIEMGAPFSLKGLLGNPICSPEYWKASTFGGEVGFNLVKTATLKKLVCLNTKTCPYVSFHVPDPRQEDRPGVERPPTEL
Settings: Resch, et al., J. Nat. Prod., 61, 347-350 (1998)

Structure (SMILES): CC(C)=CCCC1(C)C=Cc2cc(O)cc(C)c2O1 (stereo not shown) [atractylochromene]
- inhibitory effects on COX-1 activity (in words): significant COX-1 inhibitory effects
